Consider one molecule from ChEMBL document CHEMBL1955771, “VX-322: a novel dual receptor tyrosine kinase inhibitor for the treatment of acute myelogenous leukemia” (J Med Chem, 2012).

The target in experiment [1] is Mast/stem cell growth factor receptor Kit (Homo sapiens, UniProt P10721). The experiment in a line: Inhibition of human recombinant c-Kit by radiometric assay.
Experiment [2] has as its target T1, Tyrosine-protein kinase JAK3 (Homo sapiens, UniProt P52333).
T1 sequence (P52333 whole entry): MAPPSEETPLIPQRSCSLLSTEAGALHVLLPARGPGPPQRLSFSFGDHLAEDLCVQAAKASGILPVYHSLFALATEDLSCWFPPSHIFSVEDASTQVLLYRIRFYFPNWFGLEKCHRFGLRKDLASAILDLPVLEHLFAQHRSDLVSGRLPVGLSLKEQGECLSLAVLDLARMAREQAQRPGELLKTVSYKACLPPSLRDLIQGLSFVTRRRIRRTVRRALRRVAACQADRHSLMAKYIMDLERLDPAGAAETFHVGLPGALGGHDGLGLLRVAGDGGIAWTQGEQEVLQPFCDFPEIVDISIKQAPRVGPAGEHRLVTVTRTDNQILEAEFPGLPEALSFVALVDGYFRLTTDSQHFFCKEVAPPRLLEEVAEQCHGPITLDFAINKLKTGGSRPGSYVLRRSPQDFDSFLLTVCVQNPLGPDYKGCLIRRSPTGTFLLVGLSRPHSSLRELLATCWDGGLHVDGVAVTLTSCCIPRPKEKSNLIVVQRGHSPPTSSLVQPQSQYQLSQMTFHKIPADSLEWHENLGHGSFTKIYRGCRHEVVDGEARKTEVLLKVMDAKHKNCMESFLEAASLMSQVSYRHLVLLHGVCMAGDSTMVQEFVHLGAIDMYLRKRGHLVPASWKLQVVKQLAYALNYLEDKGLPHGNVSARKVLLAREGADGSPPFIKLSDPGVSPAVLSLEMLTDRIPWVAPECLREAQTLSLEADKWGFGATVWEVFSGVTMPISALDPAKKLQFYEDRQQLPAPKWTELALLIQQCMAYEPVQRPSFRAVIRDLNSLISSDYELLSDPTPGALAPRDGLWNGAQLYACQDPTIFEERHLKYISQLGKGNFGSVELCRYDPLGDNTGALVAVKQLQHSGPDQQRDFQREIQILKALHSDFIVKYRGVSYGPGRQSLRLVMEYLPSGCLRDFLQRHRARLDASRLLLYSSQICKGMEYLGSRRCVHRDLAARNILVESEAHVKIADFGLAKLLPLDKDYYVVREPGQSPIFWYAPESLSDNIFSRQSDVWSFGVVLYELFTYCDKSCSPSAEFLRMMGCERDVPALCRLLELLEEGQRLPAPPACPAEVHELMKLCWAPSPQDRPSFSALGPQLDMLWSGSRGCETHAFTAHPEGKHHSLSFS
Briefly: Inhibition of Jak3.

The target of experiment [3] is Receptor-type tyrosine-protein kinase FLT3 (Homo sapiens, UniProt P36888, ITD). The experiment in a line: Inhibition of FLT3 ITD mutant mediated Stat5 phosphorylation in human MV4-11 cells by immunoblot analysis. The class given is cell-based.
Sequence of Receptor-type tyrosine-protein kinase FLT3 (P36888 whole entry, looked up, change not shown): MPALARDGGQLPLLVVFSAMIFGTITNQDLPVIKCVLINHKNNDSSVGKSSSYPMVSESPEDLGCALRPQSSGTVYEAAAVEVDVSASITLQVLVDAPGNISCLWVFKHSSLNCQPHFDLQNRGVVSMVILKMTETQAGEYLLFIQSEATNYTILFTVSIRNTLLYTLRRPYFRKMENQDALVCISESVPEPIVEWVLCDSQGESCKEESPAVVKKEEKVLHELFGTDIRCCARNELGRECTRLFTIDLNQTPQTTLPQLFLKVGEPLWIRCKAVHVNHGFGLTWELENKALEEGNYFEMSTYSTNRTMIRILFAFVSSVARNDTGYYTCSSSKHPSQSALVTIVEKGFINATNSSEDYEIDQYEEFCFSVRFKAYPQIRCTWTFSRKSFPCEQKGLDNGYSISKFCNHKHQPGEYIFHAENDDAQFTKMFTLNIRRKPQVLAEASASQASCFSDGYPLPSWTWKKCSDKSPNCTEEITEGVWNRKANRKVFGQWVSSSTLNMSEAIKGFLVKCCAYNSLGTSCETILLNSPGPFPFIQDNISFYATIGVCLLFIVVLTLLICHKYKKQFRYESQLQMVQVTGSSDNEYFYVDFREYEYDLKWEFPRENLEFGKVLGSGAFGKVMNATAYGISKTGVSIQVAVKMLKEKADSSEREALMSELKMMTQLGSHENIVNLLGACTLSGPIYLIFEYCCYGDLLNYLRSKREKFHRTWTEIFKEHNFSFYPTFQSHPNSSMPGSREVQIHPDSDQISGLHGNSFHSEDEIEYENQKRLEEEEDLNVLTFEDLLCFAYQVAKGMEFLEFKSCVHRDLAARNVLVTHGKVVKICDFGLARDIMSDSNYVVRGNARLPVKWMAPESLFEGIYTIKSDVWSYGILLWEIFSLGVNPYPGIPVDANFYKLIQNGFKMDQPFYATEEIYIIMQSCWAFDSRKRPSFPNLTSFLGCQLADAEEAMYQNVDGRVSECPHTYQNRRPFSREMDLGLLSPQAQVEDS

The structures appear in SMILES notation. Bounds are passed on as bounds.

Sequence of Mast/stem cell growth factor receptor Kit (P10721 whole entry): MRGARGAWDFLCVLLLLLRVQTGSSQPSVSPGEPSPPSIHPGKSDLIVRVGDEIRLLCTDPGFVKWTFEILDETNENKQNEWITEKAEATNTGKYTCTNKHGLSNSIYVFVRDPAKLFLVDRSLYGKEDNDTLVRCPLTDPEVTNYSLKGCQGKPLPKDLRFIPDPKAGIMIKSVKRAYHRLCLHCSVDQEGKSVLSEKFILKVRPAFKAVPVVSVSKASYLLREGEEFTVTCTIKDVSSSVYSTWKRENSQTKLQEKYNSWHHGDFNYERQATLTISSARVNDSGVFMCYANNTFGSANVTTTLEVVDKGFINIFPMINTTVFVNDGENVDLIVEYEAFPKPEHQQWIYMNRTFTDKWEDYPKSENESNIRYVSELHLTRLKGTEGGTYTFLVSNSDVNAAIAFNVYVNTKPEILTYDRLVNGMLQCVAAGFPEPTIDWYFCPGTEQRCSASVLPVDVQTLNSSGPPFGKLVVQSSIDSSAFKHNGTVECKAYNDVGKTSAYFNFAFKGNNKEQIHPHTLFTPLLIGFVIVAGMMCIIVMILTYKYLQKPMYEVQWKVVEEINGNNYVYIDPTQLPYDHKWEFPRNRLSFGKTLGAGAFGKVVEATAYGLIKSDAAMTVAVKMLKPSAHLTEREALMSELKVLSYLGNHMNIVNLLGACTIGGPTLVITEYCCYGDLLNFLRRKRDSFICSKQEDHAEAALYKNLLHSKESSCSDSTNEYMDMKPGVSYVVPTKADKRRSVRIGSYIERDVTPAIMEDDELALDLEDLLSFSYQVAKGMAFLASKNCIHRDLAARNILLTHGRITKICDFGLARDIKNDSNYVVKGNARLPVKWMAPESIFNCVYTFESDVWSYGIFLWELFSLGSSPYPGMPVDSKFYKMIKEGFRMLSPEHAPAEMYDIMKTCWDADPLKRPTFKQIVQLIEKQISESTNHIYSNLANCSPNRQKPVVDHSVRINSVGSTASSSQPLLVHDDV

For the molecule `Nc1nc(Nc2ccc([C@H]3CC[C@H](N4CCOCC4)CC3)cc2)nn1-c1ccccn1`, the inhibitory constant (Ki) in experiment [1] was less than 1 nM; in experiment [2], 280 nM. The IC50 in experiment [3] was 1.3 nM.
